In PubChem BioAssay (NCI):
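All cell lines were grown in 96-well plates and treated with compound for 48 hours. GI50 is the concentration that inhibits growth by half. At the TGI there is no net growth.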

Assays:
Experiment in all cases: growth of human tumour cells (NCI), 48 h
786-0 renal = test system: 786-0 renal
A498 renal = test system: A498 renal
A549 NSCLC = test system: A549 NSCLC
ACHN renal = test system: ACHN renal
BT-549 breast = test system: BT-549 breast
CAKI-1 renal = test system: CAKI-1 renal
CCRF-CEM leukemia = test system: CCRF-CEM leukemia
COLO 205 colon = test system: COLO 205 colon
DU-145 prostate = test system: DU-145 prostate
EKVX NSCLC = test system: EKVX NSCLC
HCC-2998 colon = test system: HCC-2998 colon
HCT-116 colon = test system: HCT-116 colon
HCT-15 colon = test system: HCT-15 colon
HL-60(TB) leukemia = test system: HL-60(TB) leukemia
HOP-62 NSCLC = test system: HOP-62 NSCLC
HOP-92 NSCLC = test system: HOP-92 NSCLC
HS 578T breast = test system: HS 578T breast
HT29 colon = test system: HT29 colon
IGROV1 ovarian = test system: IGROV1 ovarian
K-562 leukemia = test system: K-562 leukemia
KM12 colon = test system: KM12 colon
LOX IMVI melanoma = test system: LOX IMVI melanoma
M14 melanoma = test system: M14 melanoma
MALME-3M melanoma = test system: MALME-3M melanoma
MCF7 breast = test system: MCF7 breast
MDA-MB-231 breast = test system: MDA-MB-231 breast
MDA-MB-435 = test system: MDA-MB-435
MOLT-4 leukemia = test system: MOLT-4 leukemia
NCI-H226 lung = test system: NCI-H226 lung
NCI-H23 lung = test system: NCI-H23 lung
NCI-H460 lung = test system: NCI-H460 lung
NCI-H522 lung = test system: NCI-H522 lung
NCI/ADR-RES ovarian = test system: NCI/ADR-RES ovarian
OVCAR-4 ovarian = test system: OVCAR-4 ovarian
OVCAR-5 ovarian = test system: OVCAR-5 ovarian
OVCAR-8 ovarian = test system: OVCAR-8 ovarian
PC-3 prostate = test system: PC-3 prostate
RPMI-8226 leukemia = test system: RPMI-8226 leukemia
RXF 393 renal = test system: RXF 393 renal
SF-268 CNS = test system: SF-268 CNS
SF-295 CNS = test system: SF-295 CNS
SF-539 CNS = test system: SF-539 CNS
SK-MEL-2 melanoma = test system: SK-MEL-2 melanoma
SK-MEL-28 melanoma = test system: SK-MEL-28 melanoma
SK-MEL-5 melanoma = test system: SK-MEL-5 melanoma
SK-OV-3 ovarian = test system: SK-OV-3 ovarian
SN12C renal = test system: SN12C renal
SNB-19 CNS = test system: SNB-19 CNS
SNB-75 CNS = test system: SNB-75 CNS
SR leukemia = test system: SR leukemia
SW-620 colon = test system: SW-620 colon
T-47D breast = test system: T-47D breast
TK-10 renal = test system: TK-10 renal
U251 CNS = test system: U251 CNS
UACC-257 melanoma = test system: UACC-257 melanoma
UACC-62 melanoma = test system: UACC-62 melanoma
UO-31 renal = test system: UO-31 renal

`Oc1ccc(CSc2nnc(-c3cnccn3)o2)c2cccnc12` was tested, and the GI50 (786-0 renal) was 590 nM, the TGI (786-0 renal) was greater than 100000 nM and the GI50 (A498 renal) was 2220 nM. It also gave a TGI (A498 renal) of 7220 nM, a GI50 (A549 NSCLC) of 404 nM and a TGI (A549 NSCLC) greater than 100000 nM. It also gave a GI50 (ACHN renal) of 432 nM, a TGI (ACHN renal) greater than 100000 nM and a GI50 (BT-549 breast) of 283 nM. For the same compound, the TGI (BT-549 breast) was 8560 nM, the GI50 (CAKI-1 renal) was 605 nM and the TGI (CAKI-1 renal) was greater than 100000 nM. For the same compound, the GI50 (CCRF-CEM leukemia) was 536 nM, the TGI (CCRF-CEM leukemia) was greater than 100000 nM and the GI50 (COLO 205 colon) was 3220 nM. For the same compound, the TGI (COLO 205 colon) was 11100 nM, the GI50 (DU-145 prostate) was 472 nM and the TGI (DU-145 prostate) was greater than 100000 nM. The GI50 (EKVX NSCLC) was 505 nM, the TGI (EKVX NSCLC) was greater than 100000 nM and the GI50 (HCC-2998 colon) was 697 nM. For the same compound, the TGI (HCC-2998 colon) was greater than 100000 nM, the GI50 (HCT-116 colon) was 334 nM and the TGI (HCT-116 colon) was greater than 100000 nM. For the same compound, the GI50 (HCT-15 colon) was 385 nM, the TGI (HCT-15 colon) was greater than 100000 nM and the GI50 (HL-60(TB) leukemia) was 410 nM. It also gave a GI50 (HOP-62 NSCLC) of 449 nM, a TGI (HOP-62 NSCLC) greater than 100000 nM and a GI50 (HOP-92 NSCLC) of 202 nM. The TGI (HOP-92 NSCLC) was 592 nM, the GI50 (HS 578T breast) was 340 nM and the TGI (HS 578T breast) was greater than 100000 nM. The GI50 (HT29 colon) was 4000 nM, the TGI (HT29 colon) was greater than 100000 nM and the GI50 (IGROV1 ovarian) was 812 nM. It also gave a TGI (IGROV1 ovarian) greater than 100000 nM, a GI50 (K-562 leukemia) of 363 nM and a TGI (K-562 leukemia) greater than 100000 nM. It also gave a GI50 (KM12 colon) of 638 nM, a TGI (KM12 colon) greater than 100000 nM and a GI50 (LOX IMVI melanoma) of 383 nM. For the same compound, the TGI (LOX IMVI melanoma) was greater than 100000 nM, the GI50 (M14 melanoma) was 475 nM and the TGI (M14 melanoma) was greater than 85200 nM. For the same compound, the GI50 (MALME-3M melanoma) was 283 nM, the TGI (MALME-3M melanoma) was 2190 nM and the GI50 (MCF7 breast) was 305 nM. The GI50 (MDA-MB-231 breast) was 840 nM, the TGI (MDA-MB-231 breast) was greater than 100000 nM and the GI50 (MDA-MB-435) was 359 nM. It also gave a TGI (MDA-MB-435) greater than 100000 nM, a GI50 (MOLT-4 leukemia) of 488 nM and a TGI (MOLT-4 leukemia) greater than 100000 nM. It also gave a GI50 (NCI-H226 lung) of 1750 nM, a TGI (NCI-H226 lung) greater than 29600 nM and a GI50 (NCI-H23 lung) of 371 nM. For the same compound, the TGI (NCI-H23 lung) was greater than 100000 nM, the GI50 (NCI-H460 lung) was 336 nM and the TGI (NCI-H460 lung) was greater than 100000 nM. It also gave a GI50 (NCI-H522 lung) of 415 nM, a TGI (NCI-H522 lung) greater than 100000 nM and a GI50 (NCI/ADR-RES ovarian) of 1890 nM. The TGI (NCI/ADR-RES ovarian) was greater than 100000 nM, the GI50 (OVCAR-4 ovarian) was 643 nM and the TGI (OVCAR-4 ovarian) was greater than 100000 nM. The GI50 (OVCAR-5 ovarian) was 1420 nM, the TGI (OVCAR-5 ovarian) was greater than 100000 nM and the GI50 (OVCAR-8 ovarian) was 381 nM. The TGI (OVCAR-8 ovarian) was greater than 100000 nM, the GI50 (PC-3 prostate) was 335 nM and the TGI (PC-3 prostate) was greater than 100000 nM. The GI50 (RPMI-8226 leukemia) was 395 nM, the TGI (RPMI-8226 leukemia) was greater than 100000 nM and the GI50 (RXF 393 renal) was 522 nM. It also gave a TGI (RXF 393 renal) greater than 41000 nM, a GI50 (SF-268 CNS) of 453 nM and a TGI (SF-268 CNS) greater than 100000 nM. For the same compound, the GI50 (SF-295 CNS) was 364 nM, the TGI (SF-295 CNS) was greater than 100000 nM and the GI50 (SF-539 CNS) was 419 nM. It also gave a TGI (SF-539 CNS) greater than 100000 nM, a GI50 (SK-MEL-2 melanoma) of 314 nM and a TGI (SK-MEL-2 melanoma) of 998 nM. It also gave a GI50 (SK-MEL-28 melanoma) of 711 nM, a TGI (SK-MEL-28 melanoma) greater than 100000 nM and a GI50 (SK-MEL-5 melanoma) of 229 nM. For the same compound, the TGI (SK-MEL-5 melanoma) was 530 nM, the GI50 (SK-OV-3 ovarian) was 700 nM and the TGI (SK-OV-3 ovarian) was greater than 23700 nM. It also gave a GI50 (SN12C renal) of 317 nM, a TGI (SN12C renal) greater than 100000 nM and a GI50 (SNB-19 CNS) of 390 nM. The TGI (SNB-19 CNS) was greater than 100000 nM, the GI50 (SNB-75 CNS) was 332 nM and the TGI (SNB-75 CNS) was greater than 100000 nM. For the same compound, the GI50 (SR leukemia) was 395 nM, the TGI (SR leukemia) was greater than 100000 nM and the GI50 (SW-620 colon) was 445 nM. It also gave a TGI (SW-620 colon) greater than 100000 nM, a GI50 (T-47D breast) of 379 nM and a TGI (T-47D breast) greater than 100000 nM. It also gave a GI50 (TK-10 renal) of 3070 nM, a TGI (TK-10 renal) greater than 100000 nM and a GI50 (U251 CNS) of 370 nM. It also gave a TGI (U251 CNS) greater than 100000 nM, a GI50 (UACC-257 melanoma) of 407 nM and a TGI (UACC-257 melanoma) of 4720 nM. For the same compound, the GI50 (UACC-62 melanoma) was 517 nM, the TGI (UACC-62 melanoma) was 15700 nM and the GI50 (UO-31 renal) was 426 nM. For the same compound, the TGI (UO-31 renal) was greater than 32200 nM.
